# Literature values as cited in US4127522A, “Novel triacontapeptides, intermediates therefor and pharmaceutical compositions and methods employing said triacontapeptides” (priority 1977, dated 1978).
# What was measured:
# [1] = test system: partially purified brain opiate receptor sites; details: natural peptide; Bradbury et al.
# [2] = injected directly into the brain of the rat; Belluzzi et al.
substance,measurement,setting,value
H-Tyr-Gly-Gly-Phe-Met-OH [methionine enkephalin],binding to partially purified brain opiate receptor sites,[1],binds stereo-specifically
same,activity in bioassays for opiate activity,opiate activity,very active
same,analgesic activity,[2],only weak analgesic agent of short duration
